Laboratory results: the supplement of paper PMC10307832

What was measured:
Assay in all cases: relative viability (nuclei count vs DMSO), 5 days (fraction); higher = more cells survive
NCI-H1993 = test system: NCI-H1993
Method in brief: (§1)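 Dosing by pin tool came one day after lung cancer cell lines were seeded in 1536-well plates, using either one drug or a fixed anchor-drug dose plus five library-drug doses (not always all listed) in √10 steps. After 5 days, nuclei were counted on 4× images. Relative viability is treated-well nuclei count divided by vehicle-well nuclei count, and values are medians of duplicate plates.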

PC-3 [JPC-3] = test system: PC-3 [JPC-3]
Method in brief: as §1

NCI-H1975 = test system: NCI-H1975
Method in brief: as §1

HCC-15 = test system: HCC-15
Method in brief: as §1

LU99A = test system: LU99A
Method in brief: as §1

NCI-H838 = test system: NCI-H838
Method in brief: as §1

LC-2-ad = test system: LC-2-ad
Method in brief: as §1

HARA = test system: HARA
Method in brief: as §1

NCI-H1734 = test system: NCI-H1734
Method in brief: as §1

NCI-H1944 = test system: NCI-H1944
Method in brief: as §1

HCC-366 = test system: HCC-366
Method in brief: as §1

NCI-H1666 = test system: NCI-H1666
Method in brief: as §1

NCI-H2228 = test system: NCI-H2228
Method in brief: as §1

NCI-H1395 = test system: NCI-H1395
Method in brief: as §1

NCI-H3122 = test system: NCI-H3122
Method in brief: as §1

NCI-H661 = test system: NCI-H661
Method in brief: as §1

CAL-12T = test system: CAL-12T
Method in brief: as §1

H3255 = test system: H3255
Method in brief: as §1

NCI-H520 = test system: NCI-H520
Method in brief: as §1

COR-L 105 = test system: COR-L 105
Method in brief: as §1

PC-14 = test system: PC-14
Method in brief: as §1

NCI-H647 = test system: NCI-H647
Method in brief: as §1

SK-LU-1 = test system: SK-LU-1
Method in brief: as §1

SMILES: Cc1cnc(-c2cnc(NCCNc3ccc(C#N)cn3)nc2-c2ccc(Cl)cc2Cl)[nH]1 + COc1cccc2cc(-c3nc([C@H]4CC[C@H](C(=O)O)CC4)n4ncnc(N)c34)[nH]c12 [OSI-027] (partner 0.5 µM)
- relative viability (NCI-H1993; first compound 0.08 µM): 0.568
- relative viability (NCI-H1993; first compound 0.253 µM): 0.49
- relative viability (NCI-H1993; first compound 0.8 µM): 0.536
- relative viability (NCI-H1993; first compound 2.53 µM): 0.577
- relative viability (PC-3 [JPC-3]; first compound 0.08 µM): 0.831
- relative viability (PC-3 [JPC-3]; first compound 0.253 µM): 0.757
- relative viability (PC-3 [JPC-3]; first compound 0.8 µM): 0.692
- relative viability (PC-3 [JPC-3]; first compound 2.53 µM): 0.742
- relative viability (NCI-H1975; first compound 0.08 µM): 0.839
- relative viability (NCI-H1975; first compound 0.253 µM): 0.647
- relative viability (NCI-H1975; first compound 0.8 µM): 0.6
- relative viability (NCI-H1975; first compound 2.53 µM): 0.399
- relative viability (HCC-15; first compound 0.08 µM): 0.707
- relative viability (HCC-15; first compound 0.253 µM): 0.665
- relative viability (HCC-15; first compound 0.8 µM): 0.512
- relative viability (HCC-15; first compound 2.53 µM): 0.786
- relative viability (LU99A; first compound 0.08 µM): 0.291
- relative viability (LU99A; first compound 0.253 µM): 0.304
- relative viability (LU99A; first compound 0.8 µM): 0.327
- relative viability (LU99A; first compound 2.53 µM): 0.401
- relative viability (NCI-H838; first compound 0.08 µM): 0.433
- relative viability (NCI-H838; first compound 0.253 µM): 0.424
- relative viability (NCI-H838; first compound 0.8 µM): 0.46
- relative viability (NCI-H838; first compound 2.53 µM): 0.846
- relative viability (LC-2-ad; first compound 0.08 µM): 0.886
- relative viability (LC-2-ad; first compound 0.253 µM): 0.713
- relative viability (LC-2-ad; first compound 2.53 µM): 0.962
- relative viability (HARA; first compound 0.08 µM): 0.554
- relative viability (HARA; first compound 0.253 µM): 0.376
- relative viability (HARA; first compound 0.8 µM): 0.469
- relative viability (HARA; first compound 2.53 µM): 0.562
- relative viability (NCI-H1734; first compound 0.08 µM): 0.66
- relative viability (NCI-H1734; first compound 0.253 µM): 0.547
- relative viability (NCI-H1734; first compound 0.8 µM): 0.597
- relative viability (NCI-H1734; first compound 2.53 µM): 0.616
- relative viability (NCI-H1944; first compound 0.08 µM): 0.422
- relative viability (NCI-H1944; first compound 0.8 µM): 0.489
- relative viability (NCI-H1944; first compound 2.53 µM): 0.685
- relative viability (HCC-366; first compound 0.08 µM): 1.01
- relative viability (HCC-366; first compound 0.253 µM): 0.489
- relative viability (HCC-366; first compound 0.8 µM): 0.558
- relative viability (HCC-366; first compound 2.53 µM): 0.695
- relative viability (NCI-H1666; first compound 0.08 µM): 0.828
- relative viability (NCI-H1666; first compound 0.253 µM): 0.77
- relative viability (NCI-H1666; first compound 0.8 µM): 0.894
- relative viability (NCI-H1666; first compound 2.53 µM): 0.903
- relative viability (NCI-H2228; first compound 0.08 µM): 0.779
- relative viability (NCI-H2228; first compound 0.253 µM): 0.807
- relative viability (NCI-H2228; first compound 0.8 µM): 0.569
- relative viability (NCI-H2228; first compound 2.53 µM): 0.469
- relative viability (NCI-H1395; first compound 0.08 µM): 0.828
- relative viability (NCI-H1395; first compound 0.253 µM): 0.525
- relative viability (NCI-H1395; first compound 0.8 µM): 0.602
- relative viability (NCI-H1395; first compound 2.53 µM): 0.67
- relative viability (NCI-H3122; first compound 0.08 µM): 1.4
- relative viability (NCI-H3122; first compound 0.8 µM): 1.05
- relative viability (NCI-H3122; first compound 2.53 µM): 0.967
- relative viability (NCI-H661; first compound 0.08 µM): 0.77
- relative viability (NCI-H661; first compound 0.253 µM): 0.667
- relative viability (NCI-H661; first compound 0.8 µM): 0.743
- relative viability (NCI-H661; first compound 2.53 µM): 0.802
- relative viability (CAL-12T; first compound 0.08 µM): 0.774
- relative viability (CAL-12T; first compound 0.253 µM): 0.59
- relative viability (CAL-12T; first compound 0.8 µM): 0.565
- relative viability (CAL-12T; first compound 2.53 µM): 0.571
- relative viability (H3255; first compound 0.08 µM): 0.745
- relative viability (H3255; first compound 0.253 µM): 0.535
- relative viability (H3255; first compound 0.8 µM): 0.616
- relative viability (H3255; first compound 2.53 µM): 0.592
- relative viability (NCI-H520; first compound 0.08 µM): 0.24
- relative viability (NCI-H520; first compound 0.253 µM): 0.288
- relative viability (NCI-H520; first compound 0.8 µM): 0.274
- relative viability (NCI-H520; first compound 2.53 µM): 0.28
- relative viability (COR-L 105; first compound 0.08 µM): 0.769
- relative viability (COR-L 105; first compound 0.253 µM): 0.661
- relative viability (COR-L 105; first compound 0.8 µM): 0.694
- relative viability (COR-L 105; first compound 2.53 µM): 0.379
- relative viability (PC-14; first compound 0.08 µM): 1.21
- relative viability (PC-14; first compound 0.253 µM): 0.673
- relative viability (PC-14; first compound 0.8 µM): 0.76
- relative viability (PC-14; first compound 2.53 µM): 0.643
- relative viability (NCI-H647; first compound 0.08 µM): 0.752
- relative viability (NCI-H647; first compound 0.253 µM): 0.512
- relative viability (NCI-H647; first compound 0.8 µM): 0.725
- relative viability (NCI-H647; first compound 2.53 µM): 0.55
- relative viability (SK-LU-1; first compound 0.08 µM): 0.344
- relative viability (SK-LU-1; first compound 0.253 µM): 0.336
- relative viability (SK-LU-1; first compound 0.8 µM): 0.35
- relative viability (SK-LU-1; first compound 2.53 µM): 0.463
